By IC50 is commonly meant the concentration at which inhibition is half-maximal. Higher therefore signals a need for much substance.

A short description of this assay: Inhibition of rabbit muscle GPa. Details: species or system Oryctolagus cuniculus.
`O=C(Nc1ccccn1)c1cccc(C(=O)Nc2ccccn2)c1` yielded an IC50 of 57.6 µM.

`COc1ccccc1N1CCN(CC(=O)Nc2cccc(C(F)(F)F)c2)CC1` returned an IC50 of 46.1 µM.

On to `COc1ccc(NC(=O)c2cc(Sc3nccn3C)c(F)cc2N)cc1`, for which the midpoint of inhibition, the IC50, lay at 107 µM.

In turn, `O=C(CN1CCN(c2ccccc2F)CC1)Nc1cccc(C(F)(F)F)c1` registered an IC50 of 78.5 µM.

Consider `Cc1ccc(NC(=O)c2cc(Sc3nccn3C)c(F)cc2N)cc1`, for which the concentration for half-maximal inhibition (IC50) amounted to 70.1 µM.

On to `COc1ccccc1NC(=O)c1cc(Sc2nccn2C)c(F)cc1N`, for which half-maximal inhibition (IC50) required 41.8 µM.

The compound `Cn1ccnc1Sc1cc(C(=O)Nc2ccccc2)c(N)cc1F` registered an IC50 of 215 µM.

`COc1cccc(NC(=O)c2cc(Sc3nccn3C)c(F)cc2N)c1` yielded an IC50 of 166 µM.

`Cn1ccnc1Sc1cc(C(=O)Nc2cccc(C(F)(F)F)c2)c(N)cc1F`: the concentration for half-maximal inhibition (IC50) amounted to 8.95 µM.

Take `Cn1ccnc1Sc1cc(C(=O)Nc2ccccc2N)c(N)cc1F`: the concentration for half-maximal inhibition (IC50) is 95.3 µM.

In turn, `Cn1ccnc1Sc1cc(C(=O)NCc2ccccc2)c(N)cc1F` displayed an IC50 of 153 µM.

The compound `Cn1ccnc1Sc1cc(C(=O)Nc2cccc(C#N)c2)c(N)cc1F` returned a 50% inhibitory concentration (IC50) of 9.87 µM.

Consider `O=C(Nc1nncs1)c1ccc(C(=O)Nc2nncs2)cc1`, for which the IC50 was 269 µM.

Turning to `O=C(Nc1nccs1)c1ccc(C(=O)Nc2nccs2)cc1`, inhibition was half-maximal at 337 µM (IC50).

Compound `Cn1ccnc1Sc1cc(C(=O)Nc2cccc(N)c2)c(N)cc1F` had a half-inhibitory concentration (IC50) of 2.68 µM.

Compound `Cn1ccnc1Sc1cc(C(=O)Nc2ccc(C#N)cc2)c(N)cc1F` gave an IC50 of 96.1 µM.

Turning to `O=C(CN1CCN(c2ccccc2F)CC1)Nc1nccs1`, half-maximal inhibition (IC50) required 35.8 µM.

`Cn1ccnc1Sc1cc(C(=O)Nc2ccccc2C#N)c(N)cc1F` yielded an IC50 of 75.9 µM.

The compound `O=C(CN1CCN(c2ccccc2)CC1)Nc1nccs1` registered an IC50 of 96.9 µM.

On to `Cn1ccnc1Sc1cc(C(=O)Nc2cccc(F)c2)c(N)cc1F`, for which the IC50 was 30.9 µM.

As to `Cn1ccnc1Sc1cc(C(=O)Nc2ccc(N)cc2)c(N)cc1F`, the IC50 was determined as 91.1 µM.

The compound `O=C(Nc1ccccn1)c1cccc(C(=O)Nc2ccccn2)n1` registered an IC50 of 425 µM.

The values are drawn from ChEMBL document CHEMBL1149706, “Discovering benzamide derivatives as glycogen phosphorylase inhibitors and their binding site at the enzyme” (Bioorg Med Chem, 2007).
